According to patent publication US20090203644A1, “Compositions for treating and/or preventing diseases characterized by the presence of metal ions” (GrenPharma LLC, priority 2004, published 2009):
“Also recorded” adds a separate entry of the source. Read-outs that look alike come from different tables or passages of the source.

What was measured:
Caco-2 cells [1] = settings: Caco-2
NF-M17 = target: T1, NF-M17 (Homo sapiens, UniProt P07197); assay: CD titration: restoration of the CD spectrum of NF-M17 exposed to aluminum; format: biochemical
T1 construct: a seventeen amino acid region of the human neurofilament mid-sized subunit protein, NF-M17; host or cells: chemical synthesis

A-beta peptide = test system: A-beta peptide; set-up: species or system human
A-beta peptide fragment = A-beta peptide fragment (Homo sapiens, UniProt P05067); assay: CD helix-coil reversal and pretreatment experiments (Example 11); format: biochemical
A-beta1-42 peptide = A-beta1-42 peptide (Homo sapiens, UniProt P05067); assay: CD: reversal of the aluminum effect on the A-beta1-42 peptide spectrum (Example 3); format: biochemical
Caco-2 cells [2] = test system: Caco-2 cells

Chain of A-beta peptide fragment (P05067 672-713): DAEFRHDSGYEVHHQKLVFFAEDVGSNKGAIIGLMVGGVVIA
Chain of A-beta1-42 peptide (P05067 672-713): as above

C[Si](Cl)(Cl)CC[Si](C)(Cl)Cl [1,2-(methyldichlorosilyl)ethane]
permeation across Caco-2 cells compared with mannitol (Caco-2 cells [1]): at least four times greater

NCCC[Si](O)(O)O [APST, 3-aminopropylsilantriol]
Restore original spectra? (NF-M17): Yes | chelation of aluminum compared to sodium orthosilicate (NF-M17): improved chelation of aluminum

CC[Si](O)(CC)Cc1ccccc1 [BDS, benzyldiethylsilanol]
Restore original spectra? (NF-M17): did not restore and No

CCC(C#N)C[Si](C)(Cl)Cl (stereo not drawn) [CBMS, 2-cyanobutylmethyldichlorosilane]
Permeation Coefficient (cm/sec) Mean ± SD, where applicable (Caco-2 cells [1]; human): 6.5e-06 cm/s | Total Permeation Coefficient (cm/sec) Mean ± SD, where applicable, Caco-2 (Caco-2 cells [1]; human): 6.5e-06 cm/s | total extracted (A-beta peptide): 3.6 fmol | Total Permeation Coefficient (cm/sec) Mean ± SD, where applicable, MDCK (MDCK cells; dog): 1.5e-06 cm/s | recovery of helicity in Al-denatured peptide / reversal of aluminum-induced denaturation (CD) (A-beta peptide fragment): appeared to reverse aluminum-induced denaturation

CC(C#N)C[Si](C)(Cl)Cl (stereo not drawn) [CPMS, 2-cyanopropylmethyldichlorosilane]
permeation across Caco-2 cells compared with mannitol (Caco-2 cells [1]): approximately three times more efficiently | Permeation Coefficient (cm/sec) Mean ± SD, where applicable (Caco-2 cells [1]; human): 6.1 ± 1.7 × 10^−6 cm/sec | Total Permeation Coefficient (cm/sec) Mean ± SD, where applicable, Caco-2 (Caco-2 cells [1]; human): 6.1 ± 1.7 × 10^−6 cm/sec | total extracted (A-beta peptide): 5.3 fmol | Total Permeation Coefficient (cm/sec) Mean ± SD, where applicable, MDCK (MDCK cells; dog): 1.2e-06 cm/s | recovery of helicity in Al-denatured peptide / reversal of aluminum-induced denaturation (CD) (A-beta peptide fragment): appeared to reverse aluminum-induced denaturation

N#CCCC[Si](Cl)(Cl)Cl [CPTCS, 3-cyanopropyltrichlorosilane]
restoration of the original CD spectrum of the peptide after exposure to aluminum (A-beta1-42 peptide): able to restore the CD spectrum | reversal of the effects of aluminum on the CD spectrum of the peptide (A-beta1-42 peptide): Moderate reversal; also recorded: almost full reversal | Restore original spectra? (NF-M17): Yes | equivalents at which the CD spectrum of NF-M17/aluminum is restored to (similar to) its original shape (NF-M17): around 32 equivalents

CC[Si](Cl)(Cl)CC [DCDES, dichlorodiethylsilane]
restoration of the original CD spectrum of the peptide after exposure to aluminum (A-beta1-42 peptide): at least partially restored | Restore original spectra? (NF-M17): Yes | equivalents at which the CD spectrum of NF-M17/aluminum is restored to (similar to) its original shape (NF-M17): around 32 equivalents

CC(C)[Si](Cl)(Cl)C(C)C [DCDIPS, dichlorodiisopropylsilane]
restoration of the original CD spectrum of the peptide after exposure to aluminum (A-beta1-42 peptide): at least partially restored | Restore original spectra? (NF-M17): Yes | equivalents at which the CD spectrum of NF-M17/aluminum is restored to (similar to) its original shape (NF-M17): around 32 equivalents

O[Si](O)(c1ccccc1)c1ccccc1 [DPSD, diphenylsilandiol]
Restore original spectra? (NF-M17; CD spectrum of NF-M17 with 8 equivalents of aluminum, titration up to 32 equivalents): did not restore; also recorded: (DMSO interfered with spectra)

CCCCCC[Si](C)(Cl)Cl [HMDS, hexylmethyldichlorosilane]
restoration of the original CD spectrum of the peptide after exposure to aluminum (A-beta1-42 peptide): at least partially restored | Restore original spectra? (NF-M17): Yes | equivalents at which the CD spectrum of NF-M17/aluminum is restored to (similar to) its original shape (NF-M17): around 32 equivalents

C[Si](Cl)(Cl)c1ccccc1 [MPDS, methylphenyldichlorosilane]
Restore original spectra? (NF-M17): Yes | equivalents at which the CD spectrum of NF-M17/aluminum is restored to (similar to) its original shape (NF-M17): around 32 equivalents

CCCCCCCC[Si](Cl)(Cl)Cl [OTCS, n-octyltrichlorosilane]
Restore original spectra? (NF-M17): did not restore; also recorded: (gelation of OTCS)

C1CC[Si]2(CCCCO2)OC1 [SDSU, 1,7-dioxa-6-sila-spiro[5.5]undecane]
transport across the Caco-2 cells (Caco-2 cells [2]): significant amount of transport | restoration of the original CD spectrum of the peptide after exposure to aluminum (A-beta1-42 peptide): at least partially restored

CC(=O)O[Si](OC(C)=O)(OC(C)=O)OC(C)=O [TAS, tetraacetooxysilane]
restoration of the original CD spectrum of the peptide after exposure to aluminum (A-beta1-42 peptide; 8 to 12 equivalents of aluminum): at least partially restored

CC(C)(C)[Si](C)(C)O [TBDMS, tert-butyldimethylsilanol]
Restore original spectra? (NF-M17): did not restore and No

CC[Si](O)(CC)CC [TES, triethylsilanol]
restoration of the original CD spectrum of the peptide after exposure to aluminum (A-beta1-42 peptide): at least partially restored | Restore original spectra? (NF-M17): did not restore and No

CN(C)[Si](N(C)C)(N(C)C)N(C)C [tetrakis, tetrakis(dimethylamino)silane]
restoration of the original CD spectrum of the peptide after exposure to aluminum (A-beta1-42 peptide): at least partially restored

(dichloro)methylsilylbutyronitrile [DCMSBN]
transport across Caco-2 cells, FIG. 29B compounds compared with FIG. 29A compounds (Caco-2 cells [2]): more transport | transport across the Caco-2 cells (Caco-2 cells [2]): significant amount of transport | restoration of the original CD spectrum of the peptide after exposure to aluminum (A-beta1-42 peptide): at least partially restored | Restore original spectra? (NF-M17): Yes | equivalents at which the CD spectrum of NF-M17/aluminum is restored to (similar to) its original shape (NF-M17): around 32 equivalents

Trihydroxysilylmethyl phosphonate
permeation across Caco-2 cells compared with mannitol (Caco-2 cells [1]): slower permeation

dichlorosilacyclobutane [DCSCB]
transport across the Caco-2 cells (Caco-2 cells [2]): significant amount of transport | restoration of the original CD spectrum of the peptide after exposure to aluminum (A-beta1-42 peptide): at least partially restored

sodium metasilicate nonahydrate [reference compound]
equivalents at which some return / beginning of return of the CD curve to its original shape is seen (NF-M17): about 32 equivalents

sodium orthosilicate [reference compound]
restoration of the original CD spectrum of the peptide after exposure to aluminum (A-beta1-42 peptide): at least partially restored | equivalents at which some return / beginning of return of the CD curve to its original shape is seen (NF-M17): 4 equivalents | equivalents at which the CD spectrum of NF-M17/aluminum is restored to (similar to) its original shape (NF-M17): around 16 equivalents

triethoxysilylbutyronitrile
crossing of the epithelial barrier in the Caco-2 model (Caco-2 cells [1]): crossed the epithelial barrier efficiently | permeation across Caco-2 cells compared with mannitol (Caco-2 cells [1]): at least four times greater | restoration of the original CD spectrum of the peptide after exposure to aluminum (A-beta1-42 peptide): reverses aluminum-induced denaturation

triethoxysilylbutyronitrile [TESB]
Cell Permeation Coefficient (cm/sec) Caco-2 (Caco-2 cells [1]): 3.7e-05 cm/s | Permeation Coefficient (cm/sec) Mean ± SD, where applicable (Caco-2 cells [1]): 3e-05 cm/s | Total Permeation Coefficient (cm/sec) Mean ± SD, where applicable, Caco-2 (Caco-2 cells [1]): 2.8 ± 1.8 × 10^−5 cm/sec | cell permeation coefficient compared with mannitol, Caco-2 (Caco-2 cells [1]): at least ten times greater | crossing of the epithelial barrier in the Caco-2 model (Caco-2 cells [1]): cross the epithelial barrier relatively efficiently | permeation across Caco-2 cells compared with mannitol (Caco-2 cells [1]): at least ten times greater | transport across Caco-2 cells, FIG. 29B compounds compared with FIG. 29A compounds (Caco-2 cells [2]): more transport | transport across the Caco-2 cells (Caco-2 cells [2]): significant amount of transport | restoration of the original CD spectrum of the peptide after exposure to aluminum (A-beta1-42 peptide): at least partially restored | Cell Permeation Coefficient (cm/sec) MDCK (MDCK cells): 2.7e-05 cm/s | Total Permeation Coefficient (cm/sec) Mean ± SD, where applicable, MDCK (MDCK cells): 2.2 ± 1.4 × 10^−5 cm/sec | cell permeation coefficient compared with mannitol, MDCK (MDCK cells): at least ten times greater | crossing of the epithelial barrier in the MDCK model (MDCK cells): cross the epithelial barrier relatively efficiently | permeation across MDCK cells compared with mannitol (MDCK cells): at least ten times greater | recovery of helicity in Al-denatured peptide / reversal of aluminum-induced denaturation (CD) (A-beta peptide fragment): appeared to reverse aluminum-induced denaturation

triethoxysilylpropionitrile [TESP]
restoration of the original CD spectrum of the peptide after exposure to aluminum (A-beta1-42 peptide): at least partially restored

trihydroxysilylmethyl phosphonate
crossing of the epithelial barrier in the Caco-2 model (Caco-2 cells [1]): permeated less efficiently

trihydroxysilylmethyl phosphonate [TSMP]
Cell Permeation Coefficient (cm/sec) Caco-2 (Caco-2 cells [1]): 2e-07 cm/s | Permeation Coefficient (cm/sec) Mean ± SD, where applicable (Caco-2 cells [1]): 1.9 ± 1.5 × 10^−7 cm/sec | Total Permeation Coefficient (cm/sec) Mean ± SD, where applicable, Caco-2 (Caco-2 cells [1]): 1.9 ± 1.5 × 10^−7 cm/sec | permeation across Caco-2 cells compared with mannitol (Caco-2 cells [1]): slower permeation | Cell Permeation Coefficient (cm/sec) MDCK (MDCK cells): 5.4e-07 cm/s | Total Permeation Coefficient (cm/sec) Mean ± SD, where applicable, MDCK (MDCK cells): 5.2 ± 7.0 × 10^−7 cm/sec | permeation across MDCK cells compared with mannitol (MDCK cells): slower permeation
